Reference: patent publication US10294202B2, “Pyrrolidinones as herbicides” (FMC Corporation, priority 2013, dated 2019)

Assays:
barnyardgrass [1] = assay: Test B flooded paddy test; assay type: in vivo, Echinochloa crus-galli; conditions: 500 g ai/ha, Flood; scale of 0 to 100 where 0 is no effect and 100 is complete control
How it was run: (§1)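 Scored visually 0–100 (0 no effect, 100 complete control) versus controls after 13 to 15 greenhouse days. Treatment: compound added to paddy water kept 3 cm above soil, on 2-leaf-stage plants.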

rice = assay: Test B flooded paddy test; assay type: in vivo, Oryza sativa; conditions: 500 g ai/ha, Flood; scale of 0 to 100 where 0 is no effect and 100 is complete control
How it was run: as §1

barnyardgrass [2] = assay: Test C pre-/postemergence herbicide test; assay type: in vivo, Echinochloa crus-galli
How it was run: (§2)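 Compound solutions contained surfactant in a non-phytotoxic solvent. These were sprayed onto pots of loam/sand sown with seeds, and onto young plants (2 to 18 cm, 1- to 4-leaf) in sphagnum peat–vermiculite mix. Visual injury scores (0 none, 100 complete control) were recorded after 13 to 15 days.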

corn [3] = assay: Test C pre-/postemergence herbicide test; assay type: in vivo, Zea mays
How it was run: as §2

nutsedge, yellow = assay: Test C pre-/postemergence herbicide test; assay type: in vivo, Cyperus esculentus
How it was run: as §2

ducksalad = assay: Test B flooded paddy test; assay type: in vivo, Heteranthera limosa; conditions: 500 g ai/ha, Flood; scale of 0 to 100 where 0 is no effect and 100 is complete control
How it was run: as §1

barnyardgrass [4] = assay: Test A pre-/postemergence herbicide test; assay type: in vivo, Echinochloa crus-galli
How it was run: (§3)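 Formulated compound (non-phytotoxic solvent, surfactant) sprayed pre- onto soil of seeded loam/sand pots or post- onto seedlings at 1–2 leaves; ~10 d greenhouse; 0–100 visual control rating versus untreated.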

corn [5] = assay: Test A pre-/postemergence herbicide test; assay type: in vivo, Zea mays; conditions: Postemergence
How it was run: as §3

soybean = assay: Test C pre-/postemergence herbicide test; assay type: in vivo, Glycine max
How it was run: as §2

pigweed = assay: Test A pre-/postemergence herbicide test; assay type: in vivo, Amaranthus retroflexus
How it was run: as §3

oilseed rape = assay: Test C pre-/postemergence herbicide test; assay type: in vivo, Brassica napus
How it was run: as §2

foxtail, giant = assay: Test C pre-/postemergence herbicide test; assay type: in vivo, Setaria faberii
How it was run: as §2

[6] = Postemergence, 31 g ai/ha, scale 0 to 100 (0 no effect, 100 complete control)
[7] = Postemergence, 62 g ai/ha, scale 0 (no effect) to 100 (complete control)
[8] = Postemergence, 125 g ai/ha, scale 0 to 100 (0 no effect, 100 complete control)
[9] = Postemergence, 250 g ai/ha, scale 0 to 100 (0 no effect, 100 complete control)
[10] = Preemergence, 31 g ai/ha, scale 0 to 100, 0 is no effect and 100 is complete control
[11] = Preemergence, 62 g ai/ha, scale 0 to 100 (0 no effect, 100 complete control)
[12] = Preemergence, 125 g ai/ha, scale 0 to 100
[13] = Postemergence, 125 g ai/ha, visual rating on 0 to 100 scale (0 no effect, 100 complete control), approx. 10 days
[14] = Postemergence, 500 g ai/ha, 0 to 100 scale (0 no effect, 100 complete control)
[15] = Preemergence, 125 g ai/ha, 0 to 100 scale where 0 is no effect and 100 is complete control
[16] = Preemergence, 500 g ai/ha, visual rating on 0 to 100 scale (0 no effect, 100 complete control)

O=C1NCC(c2cccc(C(F)(F)F)c2)C1C(=O)Nc1ccccc1Cl (stereo not drawn) [Compound 312]
Plant response rating, Barnyardgrass (barnyardgrass [1]): 75
Plant response rating, Rice (rice): 20
Plant response rating, Barnyardgrass (barnyardgrass [2]; [6]): 40
Plant response rating, Barnyardgrass (barnyardgrass [2]; [7]): 70
Plant response rating, Barnyardgrass (barnyardgrass [2]; [8]): 70
Plant response rating, Barnyardgrass (barnyardgrass [2]; [9]): 75
Barnyardgrass plant response rating (barnyardgrass [2]; [10]): 85
Barnyardgrass plant response rating (barnyardgrass [2]; [11]): 90
Plant response rating, Barnyardgrass (barnyardgrass [2]; Preemergence, 125 g ai/ha, scale 0 to 100 (0 no effect, 100 complete control)): 90
Plant response rating (scale of 0 to 100; 0 is no effect, 100 is complete control), Barnyardgrass (barnyardgrass [2]; Preemergence, 250 g ai/ha): 95
Plant response rating, Corn (corn [3]; [6]): 0
Plant response rating, Corn (corn [3]; [7]): 15
Plant response rating, Corn (corn [3]; [8]): 10
Plant response rating, Corn (corn [3]; [9]): 10
Corn plant response rating (corn [3]; [10]): 10
Corn plant response rating (corn [3]; [11]): 60
Plant response rating, Corn (corn [3]; [12]): 55
Plant response rating (scale of 0 to 100), Corn (corn [3]; Preemergence, 250 g ai/ha): 70
Plant response rating, Nutsedge, Yellow (nutsedge, yellow; [6]): 0
Plant response rating, Nutsedge, Yellow (nutsedge, yellow; [7]): 0
Plant response rating, Nutsedge, Yellow (nutsedge, yellow; [8]): 0
Plant response rating, Nutsedge, Yellow (nutsedge, yellow; [9]): 0
Nutsedge, Yellow plant response rating (nutsedge, yellow; [10]): 0
Nutsedge, Yellow plant response rating (nutsedge, yellow; [11]): 35
Plant response rating, Nutsedge, Yellow (nutsedge, yellow; [12]): 0
Plant response rating (scale of 0 to 100), Nutsedge, Yellow (nutsedge, yellow; Preemergence, 250 g ai/ha): 0
Plant response rating, Ducksalad (ducksalad): 100
Plant response rating, Barnyardgrass (barnyardgrass [4]; [13]): 80
Plant response rating, Barnyardgrass (barnyardgrass [4]; [14]): 90
Plant response rating, Barnyardgrass (barnyardgrass [4]; [15]): 80
Barnyardgrass plant response rating (barnyardgrass [4]; [16]): 90
Plant response rating, Corn (corn [5]; 125 g ai/ha, visual rating on 0 to 100 scale (0 no effect, 100 complete control), approx. 10 days): 60
Plant response rating, Corn (corn [5]; 500 g ai/ha, 0 to 100 scale (0 no effect, 100 complete control)): 80
Plant response rating, Soybean (soybean; [6]): 0
Plant response rating, Soybean (soybean; [7]): 0
Plant response rating, Soybean (soybean; [8]): 0
Plant response rating, Soybean (soybean; [9]): 0
Soybean plant response rating (soybean; [11]): 0
Plant response rating, Soybean (soybean; [12]): 0
Plant response rating (scale of 0 to 100), Soybean (soybean; Preemergence, 250 g ai/ha): 0
Plant response rating, Pigweed (pigweed; [13]): 20
Plant response rating, Pigweed (pigweed; [14]): 30
Plant response rating, Pigweed (pigweed; [15]): 0
Pigweed plant response rating (pigweed; [16]): 20
Plant response rating, Oilseed Rape (oilseed rape; [6]): 0
Plant response rating, Oilseed Rape (oilseed rape; [7]): 0
Plant response rating, Oilseed Rape (oilseed rape; [8]): 0
Plant response rating, Oilseed Rape (oilseed rape; [9]): 0
Oilseed Rape plant response rating (oilseed rape; [10]): 0
Oilseed Rape plant response rating (oilseed rape; [11]): 0
Plant response rating, Oilseed Rape (oilseed rape; [12]): 15
Plant response rating (scale of 0 to 100), Oilseed Rape (oilseed rape; Preemergence, 250 g ai/ha): 30
Plant response rating, Foxtail, Giant (foxtail, giant; [6]): 55
Plant response rating, Foxtail, Giant (foxtail, giant; [7]): 75
Plant response rating, Foxtail, Giant (foxtail, giant; [8]): 75
Plant response rating, Foxtail, Giant (foxtail, giant; [9]): 80
Foxtail, Giant plant response rating (foxtail, giant; [10]): 90
Foxtail, Giant plant response rating (foxtail, giant; [11]): 90
Plant response rating, Foxtail, Giant (foxtail, giant; [12]): 90
Plant response rating (scale of 0 to 100), Foxtail, Giant (foxtail, giant; Preemergence, 250 g ai/ha): 95
